The results in this text go back to ChEMBL document CHEMBL1201862, “PubChem BioAssay data set” (2004).

“And” between values parts separate entries of the source, which are not always exact repeats. Equal values may be shown once.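 Where inhibition never reached the appropriate level, the endpoint shown equals the highest concentration tested. Otherwise, values were interpolated linearly from a five-concentration, 48-hour dose response in 96-well plates. The concentration for 50% growth inhibition is given as GI50.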 The source made the active and inactive calls. No stated cut-off is given here; in the data, active = GI50 up to about 1.1 µM and inactive = higher.

Holding throughout (assay): inhibition of tumour cell growth, NCI panel, 48 h
Experiment [1] has as its system DLD-1.
Experiment [2] relates to DMS-273.
The subject of experiment [3] is HOP-18.
In experiment [4] the test system is KM-20L2.
For experiment [5], the system named is LXFL 529.
Experiment [6] deals with M19-MEL.
Experiment [7] concerns RXF 631.
Experiment [8] has as its system SNB-78.
Experiment [9] relates to XF498.

In the case of `Cc1cc(N(CCC#N)CCC#N)ccc1/C=C1\N=C(c2cc([N+](=O)[O-])ccc2Cl)N(c2cccc(Cl)c2)C1=O`, the GI50 in [1], in [2], in experiment [3], in experiment [4], in [5] and in experiment [6] was > 100 µM (inactive) each time. Moreover, the GI50 in experiment [7] and in experiment [8] was > 100 µM (inactive) throughout.

In the case of `Nc1nc(N)c(CCCCc2ccc([N+](=O)[O-])cc2)c(N)n1`, the GI50 in experiment [1] was 27 µM (inactive); in [2], 11.6 µM (inactive); in experiment [3], > 100 µM (inactive); in experiment [4], 36.1 µM (inactive); in [5], 47.8 µM (inactive); in experiment [6] it was > 100 µM (inactive). For the same compound, the GI50 in [8] and in experiment [9] was > 100 µM (inactive) each time.

For `O=C1/C(=C\c2ccccc2)C2/C(=C\c3ccccc3)C(=O)/C(=C\c3ccccc3)C2/C1=C\c1ccccc1` (stereo not drawn), the GI50 in [1] is 1.22 µM (inactive); in experiment [2], 0.964 µM (active); in experiment [3], 48 µM (inactive); in experiment [4], 1.78 µM (inactive); in experiment [5], 0.681 µM (active); in [6], 1.53 µM (inactive). In addition, the GI50 in experiment [7] was 3.12 µM (inactive).

`O=C(O)Cn1c(=O)[nH]c(=O)c2c1ncn2Cc1ccccc1`: the GI50 in experiment [1], in [2], in [4], in experiment [5], in experiment [6] and in experiment [7] was > 100 µM (inactive) in each case. The GI50 in experiment [8] and in [9] was > 100 µM (inactive) throughout.

On to `c1ccc2c(CNCCCCCCCCNCc3cccc4ccccc34)cccc2c1`, for which the GI50 in [1] is 2.11 µM (inactive); in experiment [2], 2.01 µM (inactive); in experiment [3], 5.41 µM (inactive); in experiment [4] it was 1.75 µM (inactive); in experiment [5] it was 1.82 µM (inactive); in experiment [6] it was 1.73 µM (inactive). Further, the GI50 in experiment [8] was 2.24 µM (inactive); in [9], 1.79 µM (inactive).

For the compound `O=C(c1ccccc1)C1OC12C(=O)Nc1ccccc12` (stereo not drawn), the GI50 in experiment [1] was 32.7 µM (inactive); in [2], 38 µM (inactive); in [4], 28.1 µM (inactive); in [5], 16.5 µM (inactive); in experiment [6], 30.4 µM (inactive); in experiment [7] it was 46 µM (inactive). In addition, the results for the GI50 in experiment [8] and in experiment [9] were 43.5 µM (inactive) and 26.2 µM (inactive), respectively.

For `CC(C)OP(=S)(NC(=S)c1ccccc1)OC(C)C`, the GI50 in experiment [1] is > 100 µM (inactive); in experiment [2], > 100 µM (inactive); in experiment [4] it was > 100 µM (inactive); in experiment [5], 87.3 µM (inactive); in [8], > 100 µM (inactive); in experiment [9], > 100 µM (inactive).

For `COc1cc(Nc2cnc3ccc(C(F)(F)F)cc3n2)cc(OC)c1OC`, the GI50 was 25.5 µM (inactive) in [2]; > 100 µM (inactive) in experiment [3]; 3.79 µM (inactive) in experiment [4]; 27.4 µM (inactive) in [5]; 13.6 µM (inactive) in [6]; > 100 µM (inactive) in experiment [8].

Consider `C=CCN1/C(=C2\SC(=S)N(c3ccc(C)cc3)C2=O)Sc2c1nc[nH]c2=O`, for which the GI50 in [1], in experiment [2], in experiment [4], in experiment [5], in [6] and in [8] was > 100 µM (inactive) each time. For the same compound, the GI50 in experiment [9] is > 100 µM (inactive).

As for `CCCCOC1CC2(c3ccc(OC)cc3)C(=O)c3ccccc3N2O1` (stereo not drawn), the GI50 in experiment [2], in experiment [4], in [6], in experiment [7], in [8] and in experiment [9] was > 10 µM (inactive) in each case.

Take `COc1ccc(/C=c2/sc3n(c2=O)NC(c2ccc(Cl)cc2)NN=3)cc1` (stereo not drawn): the GI50 in experiment [1], in [2], in experiment [4], in experiment [5], in experiment [6] and in [8] was > 100 µM (inactive) each time. Further, in [9], the GI50 was 51.8 µM (inactive).

As to `CCCCCC(=O)Cc1cc(OC)cc2c1C(=O)Oc1cc(O)c(C(=O)O)c(CC(=O)CCCCC)c1O2`, the GI50 in experiment [1] was 35.6 µM (inactive); in experiment [2] it was 32.1 µM (inactive); in experiment [4], 49.4 µM (inactive); in experiment [5] it was 55.5 µM (inactive); in experiment [6], 26.2 µM (inactive); in experiment [7], 35.6 µM (inactive). Also, the values for the GI50 in experiment [8] and in experiment [9] were 44.4 µM (inactive) and > 100 µM (inactive), respectively.

With `COC(=O)CC(C(C(C)=O)C(=O)OCc1ccccc1)N1C(=O)OC(c2ccccc2)C1c1ccccc1` (stereo not drawn), the GI50 was 64.7 µM (inactive) in experiment [1]; > 100 µM (inactive) and 78.5 µM (inactive) in experiment [2]; 49.1 µM (inactive) and 50.4 µM (inactive) in [5]; 85.1 µM (inactive) and 73.8 µM (inactive) in experiment [6]; 89.7 µM (inactive) in experiment [7]; 67.1 µM (inactive) in experiment [9].

Regarding `CNC(=O)NCCCC(NC(C)=O)C(=O)NCc1ccccc1` (stereo not drawn), the GI50 in experiment [1], in experiment [2], in [4], in experiment [5], in [6] and in [7] was > 100 µM (inactive) each time. In experiment [8], the GI50 was > 100 µM (inactive).

As for `Cc1nc(-c2nc(C)c(C(=O)NNC(=O)C[n+]3ccccc3)s2)sc1C(=O)NNC(=O)C[n+]1ccccc1`, the GI50 is 19.3 µM (inactive) in experiment [1]; > 100 µM (inactive) in experiment [4]; 91 µM (inactive) in experiment [5]; > 100 µM (inactive) in experiment [6]; 54.8 µM (inactive) in experiment [8].

As to `CC(CN1CC(=O)NC(=O)C1)N1CC(=O)NC(=O)C1` (stereo not drawn) [RAZOXANE], the GI50 is 245 µM (inactive) in [1]; 513 µM (inactive) in experiment [2]; 277 µM (inactive) in experiment [3]; 174 µM (inactive) in [4]; 299 µM (inactive) in experiment [6]; 449 µM (inactive) in experiment [8]. Besides, the GI50 in experiment [9] was 234 µM (inactive).

As to `Nc1ncnc2c1ncn2C1CC(OCc2ccccc2[N+](=O)[O-])C(CO)O1` (stereo not drawn), the GI50 in [1] was 23.7 µM (inactive); in [2], 18.4 µM (inactive); in [3] it was 26.6 µM (inactive); in [4], 22.2 µM (inactive); in experiment [5] it was 13.6 µM (inactive); in experiment [6] it was 16.1 µM (inactive). The GI50 was 18.2 µM (inactive) in experiment [8] and 42.2 µM (inactive) in experiment [9].

With `C1=Cc2nc1c(-c1ccccc1)c1nc(c(-c3ccccc3)c3ccc([nH]3)c(-c3ccccc3)c3ccc([nH]3)c2-c2ccccc2)C=C1` [TETRAPHENYLPORPHYRIN], the GI50 in [1], in experiment [2], in experiment [3], in experiment [4], in experiment [5] and in experiment [6] was > 100 µM (inactive) each time. For the same compound, the GI50 in experiment [7] and in [8] was > 100 µM (inactive) throughout.
